Patent publication US12234245B2, “Sulfonimidamide compounds as inhibitors of interleukin-1 activity” (Genentech, Inc., priority 2018, dated 2025)
pIC50: −log10 of the molar value. Like-named read-outs stand apart in the source and are kept apart here.

Experiments:
Type in all cases: cell-based
NLRP3 inflammasome [1] = target: T1, NLRP3 inflammasome (Homo sapiens, UniProt Q96P20); assay: NLRP3 inflammasome activation assay in PBMCs, IL-1β release (ELISA / HTRF); design: were freshly isolated from human peripheral blood from healthy donors; StemCells Technologies; host or cells: primary human PBMCs, LPS-primed, nigericin-stimulated; conditions: LPS primed
Procedure: Some of the following assays were used to determine the inhibitory activity of the compounds on the NLRP3 inflammasome using a common inflammasome activation stimuli—nigericin.
(§1) Human peripheral blood mononuclear cells (PBMCs), consisting of lymphocytes (T, B and NK cells), monocytes and dendritic cells, were freshly isolated from human peripheral blood from healthy donors. Cells were obtained through an IRB approved donor program by iXCells Biotechnologies where all the donors were tested for bacterial and viral infections. Cells were purified from peripheral blood using ficoll gradient centrifugation.
(§2) Fresh or cryopreserved PMBCs were seeded in V-bottom 96-well plate at 0.5-1×10^5 cells per well and incubated overnight at 37° C. with 5% CO2 in RPMI 1640 medium with GlutaMAX supplement, 4.5 g/L D-glucose, 10% Fetal Bovine Serum (FBS), […] Sodium Pyruvate, 1% Penicillin/Streptomycin, 10 mM HEPES and 0.05 mM of β-mercaptoethanol. Freshly isolated or cryopreserved KCs cells were seeded in flat-bottom 96-well plates at 0.6-1.5×10^5 cells/well and incubated overnight at 37° C. 5% CO2 in RPMI 1640 Medium with GlutaMAX supplement, FBS, 1% Penicillin/Streptomycin and 10 mM HEPES. The following day, the cells were primed with 100 ng/mL of lipopolysaccharides (LPS; Sigma Aldrich) in FBS-free RPMI 1640 for 3 h. After the priming step, the media was removed and PBMCs were pre-incubated with serial concentrations of test compounds (0.00017-10 uM) or vehicle (DMSO) for 30 min in FBS-free media prior to addition of the NLRP3 activator. Cells were then stimulated with 10 uM Nigericin (Sigma Aldrich; InvivoGen) for 1.5 h. Plates were centrifuged at 1,500 rpm for 3 minutes to pellet cells and supernatant was transferred into new plates for subsequent experiments.
(§3) For ELISA assays cells were seeded into 96-well plates. Post study, supernatants were removed and the levels of mature IL-1β, IL18 and TNFα (Quantikine ELISA, R&D systems) were measured in cell conditioned media by ELISA according to manufacturer's instructions.
Human frozen PBMCs were purchased from StemCells Technologies. Cells were rapidly thawed in 37° C. water bath and resuspended in fresh assay media consisting of RPMI 1640 Medium containing 1% sodium pyruvate, 10 mM HEPES, 2.5 g/L glucose and 55 μM 2-Mercaptoethanol. Cell density was adjusted to 8.1×10^5 cells/mL. Cells were primed by adding lipopolysaccharide (Invivogen Ultrapure lipopolysaccharide from E. coli, tlrl-3pelps) at a final concentration of 100 ng/mL in cell suspension. 37 μL of cell suspension with LPS was seeded per well of a 384 well plate and incubated for 3 hours at 37° C. and 5% CO2. After priming, PBMCs were preincubated with serially diluted test compounds with starting concentration of 40 μM followed by 2-fold dilution for a 20-point curve or vehicle (DMSO) for 30 min in assay media at 37° C. and 5% CO2. Cells were then stimulated with 10 μM nigericin (Invivogen, tlrl-nig-5) for 90 min at 37° C. and 5% CO2 to activate NLRP3 dependent inflammasome pathway and IL-1β release in cell culture supernatant. Cells were centrifuged at 1200 RPM for 1 min and 40 μL of supernatant was transferred into fresh plates and stored at −80° C. until IL-1β analysis.
16 μL of supernatant was added to white 384 well HTRF plates, followed by addition of 4 μL of HTRF cocktail in each well. Plates were quickly centrifuged, sealed and incubated overnight at room temperature. Next day, HTRF signal was read on a Pherastar and ratio of 665/620 was calculated based on manufacturer's protocol to obtain concentration of IL-1β in cell culture supernatant.

PBMCs = assay: CTG (CellTiter-Glo) viability assay in PBMCs; conditions: LPS and nigericin stimulated
Procedure: as §1, §2
Viability of compound treated cells was measured using CellTiter-Glo® assay (Promega, Madison, Wis.) that measures the ATP content of cells which is proportional to the number of live cells within a well. This is a counter-screen to establish that the reduction of IL-1β levels in LPS and nigericin stimulated and compound treated cells is not due to cytotoxicity, but rather through the inhibition of the inflammasome pathway. Compounds inhibiting NRLP3 inflammasome activation ultimately increase the viability of LPS and nigericin stimulated cells by blocking NLRP3 mediated pyroptosis that would otherwise lead to cell lysis.

TNFα = TNFα counter-screen in LPS and nigericin stimulated PBMCs; conditions: human PBMCs
Procedure: as §1, §2, §3
TNFα levels of LPS and nigericin stimulated cells were measured by HTRF assay (Cisbio, Bedford, MA). […] Measuring TNFalpha production also serves as a technical counter-screen to eliminate compounds that interfere with the HTRF reagents. Thus compounds that inhibit both IL-1β and TNFα levels are triaged for either being non-selective for inflammasome or interfering with the HTRF readout.

NLRP3 inflammasome [2] = target: T1, NLRP3 inflammasome; assay: THP-1 ASC-GFP speck assay; design: host or cells: THP-1 ASC-GFP cells, PMA-differentiated, LPS-primed, nigericin-stimulated; conditions: THP-1 ASC-GFP cells, PMA differentiated, LPS primed, 10 μM nigericin; read-out: THP1 ASC Speck IC50
How it was run: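 PMA-differentiated (500 ng/ml, overnight) THP-1 ASC-GFP cells primed with 1 μg/mL LPS for 3 h, preincubated 30 min with compound (top 40 μM, 2-fold, 20 points), then stimulated with 10 μM nigericin for 90 min at 37 °C. After fixation and Hoechst staining, imaging gave the percentage of cells bearing a GFP ASC speck.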

[3] = 10 uM nigericin, read-out: PBMC IL-1 β IC50
[4] = PBMC, read-out: PBMC TNF α IC50
[5] = 10 μM nigericin, read-out: PBMC IL-1β IC50
[6] = human PBMCs, read-out: PBMC CTG IC50

T1 sequence (Q96P20 whole entry): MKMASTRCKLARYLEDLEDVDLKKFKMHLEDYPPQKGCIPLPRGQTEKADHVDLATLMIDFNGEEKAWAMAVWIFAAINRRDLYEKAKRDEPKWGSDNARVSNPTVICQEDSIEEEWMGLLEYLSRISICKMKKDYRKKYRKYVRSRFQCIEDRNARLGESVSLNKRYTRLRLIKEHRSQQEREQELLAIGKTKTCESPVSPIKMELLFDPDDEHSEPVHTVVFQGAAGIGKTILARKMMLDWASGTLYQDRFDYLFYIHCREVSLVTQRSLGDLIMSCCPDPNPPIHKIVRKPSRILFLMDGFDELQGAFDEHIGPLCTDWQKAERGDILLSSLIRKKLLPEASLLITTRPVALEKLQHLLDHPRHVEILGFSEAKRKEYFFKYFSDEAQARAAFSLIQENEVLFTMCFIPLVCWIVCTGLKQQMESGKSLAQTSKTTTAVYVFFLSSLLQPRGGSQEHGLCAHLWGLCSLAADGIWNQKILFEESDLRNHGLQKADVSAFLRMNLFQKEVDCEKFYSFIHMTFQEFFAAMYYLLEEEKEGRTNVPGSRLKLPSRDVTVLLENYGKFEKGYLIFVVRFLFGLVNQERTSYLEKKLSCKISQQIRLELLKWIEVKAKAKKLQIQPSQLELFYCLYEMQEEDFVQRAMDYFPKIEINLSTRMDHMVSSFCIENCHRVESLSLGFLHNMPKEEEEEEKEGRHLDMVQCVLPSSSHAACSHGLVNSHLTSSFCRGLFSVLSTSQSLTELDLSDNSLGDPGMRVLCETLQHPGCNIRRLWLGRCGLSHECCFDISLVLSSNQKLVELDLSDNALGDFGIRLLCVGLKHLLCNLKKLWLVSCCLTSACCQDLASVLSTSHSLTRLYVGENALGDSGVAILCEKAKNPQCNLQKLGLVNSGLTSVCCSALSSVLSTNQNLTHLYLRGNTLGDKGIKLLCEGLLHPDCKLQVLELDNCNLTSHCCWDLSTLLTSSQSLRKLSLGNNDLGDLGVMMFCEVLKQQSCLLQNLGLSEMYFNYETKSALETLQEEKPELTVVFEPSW

Row | SMILES | pIC50 (NLRP3 inflammasome [1]; [3]) | pIC50 (PBMCs; Homo sapiens, PBMC) | pIC50 (NLRP3 inflammasome [1]; [5]) | pIC50 (PBMCs; [6]) | further results
1 | Cn1ccc(S(=N)(=O)NC(=O)Nc2c3c(cc4c2CCC4)CCC3)n1 (stereo not shown) | 5.00 to 6.00 | > 7.00 | – | – | pIC50 (TNFα; [4]): < 5.00
2 | CN[C@@H]1COc2c(S(=N)(=O)NC(=O)Nc3c(C(C)C)cc(F)cc3C(C)C)cnn2C1 (stereo partly shown) | 6.00 to 7.00 | 6.00 to 7.00 | – | – | pIC50 (TNFα; [4]): < 5.00
3 | NS(=O)(=NC(=O)Nc1c2c(c(F)c3c1CCC3)CCC2)c1cnn2c1OCC2 (stereo not shown) | > 7.00 | 5.00 to 6.00 | – | – | pIC50 (TNFα; [4]): < 5.00
4 | NS(=O)(=NC(=O)Nc1c2c(c(F)c3c1CCC3)CCC2)c1cnn2c1OCCCC2 (stereo not shown) | > 7.00 | < 5.00 | – | – | pIC50 (TNFα; [4]): < 5.00
5 | N=S(=O)(NC(=O)Nc1c2c(cc3c1CCC3)CCC2)c1cnn2c1OC[C@@H](NCCF)C2 (stereo partly shown) | > 7.00 | 6.00 to 7.00 | – | – | pIC50 (TNFα; [4]): < 5.00
6 | NS(=O)(=NC(=O)Nc1c2c(c(C(=O)O)c3c1CCC3)CCC2)c1cnn2c1OCCC2 (stereo not shown) | < 5.00 | < 5.00 | – | – | pIC50 (TNFα; [4]): < 5.00
7 | CNS(=O)(=NC(=O)Nc1c2c(cc3c1CCC3)CCC2)c1cnn2c1OCCC2 (racemic) [Example 9, N′-((1,2,3,5,6,7-hexahydro-s-indacen-4-yl)carbamoyl)-N-methyl-6,7-dihydro-5H-pyrazolo[5,1-b][1,3]oxazine-3-sulfonimidamide] | – | < 5.00 | < 5.00 | – | –
8 | NS(=O)(=NC(=O)Nc1c2c(cc3c1CCC3)CCC2)c1cnn(CC2CC2)c1 (racemic) [Example 10, 1-(cyclopropylmethyl)-N′-((1,2,3,5,6,7-hexahydro-s-indacen-4-yl)carbamoyl)-1H-pyrazole-4-sulfonimidamide] | – | 6.44 | 6.46 | – | –
9 | Cn1ccc(S(N)(=O)=NC(=O)Nc2c3c(cc4c2CCC4)CCC3)n1 (racemic) [Example 12, N-((1,2,3,5,6,7-hexahydro-s-indacen-4-yl)carbamoyl)-1-methyl-1H-pyrazole-3-sulfonimidamide] | – | 8.22 | 5.86 | – | pIC50 (TNFα; PBMC): < 5.00
10 | CO[C@@H]1COc2c(S(N)(=O)=NC(=O)Nc3c(C(C)C)cc(F)cc3C(C)C)cnn2C1 (mixture of isomers) [Example 15, (6S)—N′-((4-fluoro-2,6-diisopropylphenyl)carbamoyl)-6-methoxy-6,7-dihydro-5H-pyrazolo[5,1-b][1,3]oxazine-3-sulfonimidamide] | – | 7.02 | 6.52 | – | pIC50 (TNFα; PBMC): < 5.00
11 | NS(=O)(=NC(=O)Nc1c2c(c(C(=O)O)c3c1CCC3)CCC2)c1cnn2c1OCCC2 (racemic) [Example 37, 8-(3-(6,7-dihydro-5H-pyrazolo[5,1-b][1,3]oxazine-3-sulfonimidoyl)ureido)-1,2,3,5,6,7-hexahydro-s-indacene-4-carboxylic acid] | – | < 5.00 | < 5.00 | – | pIC50 (NLRP3 inflammasome [2]): < 4.70
12 | CC(C)c1cc(F)cc(C(C)C)c1NC(=O)N=S(N)(=O)c1cnn2c1OCCC2 (single isomer, unassigned) [Example 7] | – | 8.52 | 6.54 | – | –
13 | CC(C)c1cc(F)cc(C(C)C)c1NC(=O)N=S(N)(=O)c1cnn2c1OCCC2 (single isomer, unassigned) [Example 8] | – | – | 6.00 | 8.70 | pIC50 (NLRP3 inflammasome [2]): 5.03
14 | NS(=O)(=NC(=O)Nc1c2c(c(F)c3c1CCC3)CCC2)c1cnn2c1OCCC2 (single isomer, unassigned) [Example 22] | – | – | 7.02 | 7.18 | pIC50 (NLRP3 inflammasome [2]): 6.82
15 | CNC1COc2c(S(N)(=O)=NC(=O)Nc3c4c(cc5c3CCC5)CCC4)cnn2C1 (single isomer, unassigned) [Example 25] | – | – | 6.52 | 8.10 | –
16 | CNC1COc2c(S(N)(=O)=NC(=O)Nc3c(C(C)C)cc(F)cc3C(C)C)cnn2C1 (single isomer, unassigned) [Example 28] | – | – | < 5.00 | – | pIC50 (NLRP3 inflammasome [2]): 5.36; pIC50 (TNFα; read-out: PBMC TNFα IC50): < 5.00
17 | NS(=O)(=NC(=O)Nc1c2c(cc3c1CCC3)CCC2)c1cnn2c1OCC(NCCF)C2 (single isomer, unassigned) [Example 35] | – | 6.60 | 6.74 | – | –
18 | NS(=O)(=NC(=O)Nc1c2c(cc3c1CCC3)CCC2)c1cnn2c1OCC(NCCF)C2 (single isomer, unassigned) [Example 36] | – | – | 7.30 | 6.77 | pIC50 (NLRP3 inflammasome [2]): 7.18
19 | COC1CN(C2COc3c(S(N)(=O)=NC(=O)Nc4c5c(cc6c4CCC6)CCC5)cnn3C2)C1 (single isomer, unassigned) [Example 38] | – | – | 5.69 | 5.94 | pIC50 (NLRP3 inflammasome [2]): 5.82
20 | COC1CN(C2COc3c(S(N)(=O)=NC(=O)Nc4c5c(cc6c4CCC6)CCC5)cnn3C2)C1 (single isomer, unassigned) [Example 39] | – | – | 7.72 | 6.82 | –
21 | CNC1COc2c(S(N)(=O)=NC(=O)Nc3c4c(c(F)c5c3CCC5)CCC4)cnn2C1 (single isomer, unassigned) [Example 40] | – | – | 8.31 | 8.52 | pIC50 (NLRP3 inflammasome [2]): 8.06
22 | CNC1COc2c(S(N)(=O)=NC(=O)Nc3c4c(c(F)c5c3CCC5)CCC4)cnn2C1 (single isomer, unassigned) [Example 41] | – | – | 5.17 | 5.88 | pIC50 (NLRP3 inflammasome [2]): 6.37
23 | CN[C@@H]1COc2c(S(=N)(=O)NC(=O)Nc3c(C(C)C)cc(F)cc3C(C)C)cnn2C1 (single isomer, unassigned) [drawing 676] | < 5.00 | – | – | – | pIC50 (TNFα; read-out: PBMC TNF α IC50): < 5.00
24 | CO[C@@H]1COc2c(S(=N)(=O)NC(=O)Nc3c4c(cc5c3CCC5)CCC4)cnn2C1 (stereo partly shown) [drawing 650] | > 7.00 | – | – | > 7.00 | –
25 | CC(C)c1cc(F)cc(C(C)C)c1NC(=O)NS(=N)(=O)c1cnn2c1OCCC2 (stereo not shown) [drawing 651] | 6.00 to 7.00 | – | – | 6.00 to 7.00 | –
26 | CC(C)c1cc(F)cc(C(C)C)c1NC(=O)NS(=N)(=O)c1cnn2c1OCCC2 (stereo not shown) [drawing 655] | 6.00 to 7.00 | > 7.00 | – | – | –
27 | CC(C)c1cc(F)cc(C(C)C)c1NC(=O)NS(=N)(=O)c1cnn2c1OCCC2 (stereo not shown) [drawing 656] | 6.00 to 7.00 | – | – | > 7.00 | –
